Data on twelve molecules can be found in ChEMBL document CHEMBL1201862, “PubChem BioAssay data set” (2004).

The source made the active and inactive calls.

For assay [1], the target named is Beta-lactamase (Salmonella choleraesuis (strain SC-B67), UniProt Q5J463). Kind of assay: Epi-absorbance-based counterscreen for selective VIM-2 inhibitors: dose response biochemical high throughput screening assay to identify inhibitors of TEM-1 serine-beta-lactamase. For orientation: The purpose of a counterscreen is to sort out artefacts and off-target activity.

Assay [2] addresses T1, Beta-lactamase (Pseudomonas aeruginosa, UniProt Q79MP6). Kind of assay: IMP-1 metallo-beta-lactamase inhibitors, dose response, selectivity assay for VIM-2 inhibitor project, biochemical, epi-absorbance (AID 1920).
The target in assay [3] is T1, Beta-lactamase. Kind of assay: […] counterscreen for selective VIM-2 inhibitors: dose response biochemical high throughput screening assay to identify inhibitors of IMP-1 metallo-beta-lactamase.
Assay [4] can be described thus: EDANS-DABCYL fluorescence interference, concentration series, dose response, artefact control for kallikrein-7 zymogen activator project, biochemical, fluorescence intensity, triplicate (AID 720493).
The next assay concerns the target Kallikrein-7 (Homo sapiens, UniProt P49862). Briefly: Fluorescence Intensity-based biochemical primary high throughput dose response assay to identify activators of kallikrein-7 (K7) zymogen.
Assay [5] in a line: cells. As to conditions: HEK-CNG. In kind it is functional, cell-based.
A further assay addresses Galanin receptor type 3 (Homo sapiens, UniProt O60755). Briefly: Fluorescence-based cell-based primary high throughput dose response assay to identify antagonists of the Galanin Receptor 3 (GalR3). In kind it is functional.
A short description of assay [6]: cytotoxicity in HEK-293T NF-kB-Luc cells, dose response, cytotoxicity control for B/T-cell NF-kB inhibitor project, cell-based, uHTS hits (AID 489019).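 Note: IC50 reflects cytotoxicity as loss of cell viability.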 In kind it is functional.
The subject of the next assay is Jurkat. Kind of assay: antigen receptor-induced NF-kB inhibitors, dose response, Jurkat, luciferase reporter, luminescence, B- and T-cell (AID 489004).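 Note: NF-kB luciferase reporter Jurkat cells stimulated with PMA plus ionomycin.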 In kind it is functional, cell-based. As to conditions: Homo sapiens. (In general: Reporter assays use an easily measured gene product as a stand-in for the process of interest.)
Assay [7] is described as follows: inhibitors of clade B AD8 Env fusion, dose response, cell-based, cherry-pick (AID 652062).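 Note: luciferase signal from cell-cell fusion driven by HIV-1 clade B AD8 Env; potency is for inhibitors of fusion seen as a drop in luminescence.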 In kind it is functional.
The nature of assay [8]: off-target signal loss in HeLa-CEM21 co-culture – HeLa F-luc CTL cells, cherry-picked, counter-screen for HIV-1 Env fusion inhibitor project, dose response (AID 652040).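 Note: potency for signal decrease marking cytotoxic or nonspecific inhibition.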 In kind it is functional, cell-based.
Assay [9] in a line: ZM109 Env clade C HIV-1 fusion inhibitors, dose response, HeLa effector, CEM target cells, luciferase, cherry-pick (AID 652058). It counts as functional, cell-based.
Assay [10] is described as follows: inhibitors of HIV Env-driven cell fusion, dose response, cherry-pick (AID 652057). In kind it is functional, cell-based.
Assay [11] is described as follows: cells. In kind it is functional, cell-based.
Assay [12] has as its target T2, Trace amine-associated receptor 1 (Homo sapiens, UniProt Q96RJ0).
T2 sequence (Q96RJ0 whole entry): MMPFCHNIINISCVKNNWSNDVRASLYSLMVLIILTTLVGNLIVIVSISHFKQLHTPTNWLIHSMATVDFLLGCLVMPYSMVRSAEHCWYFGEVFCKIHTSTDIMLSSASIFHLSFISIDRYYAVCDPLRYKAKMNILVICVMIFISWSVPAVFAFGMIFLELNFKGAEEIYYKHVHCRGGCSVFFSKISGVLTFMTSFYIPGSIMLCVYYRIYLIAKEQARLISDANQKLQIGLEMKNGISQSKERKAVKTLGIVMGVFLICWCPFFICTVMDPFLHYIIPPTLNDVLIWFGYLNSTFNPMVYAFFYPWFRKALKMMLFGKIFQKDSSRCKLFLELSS
Briefly: Counterscreen for agonists of the human trace amine associated receptor 1 (hTAAR1): Fluorescence-based cell-based high throughput dose response assay to identify hTAAR1 agonist that also desensitize TAAR1 receptor response. It counts as functional.

Assay [13] can be described thus: cells. It counts as functional, cell-based. The source holds these as a separate data set.
Assay [14] can be described thus: HepG2 cell cytotoxicity, dose response, cytotoxicity control, ATP luminescence, cherry-pick, activator set 2 (AID 1053143). In kind it is functional, cell-based.
Assay [15] concerns the target Dual specificity tyrosine-phosphorylation-regulated kinase 1A (Rattus norvegicus, UniProt Q63470). It counts as biochemical, Homo sapiens.
For assay [16], the target named is T2, Trace amine-associated receptor 1. Briefly: Fluorescence-based cell-based high throughput dose response assay to identify agonists of the human trace amine associated receptor 1 (TAAR1). In kind it is functional.
Assay [17] deals with Luciferin 4-monooxygenase (Photinus pyralis, UniProt P08659). Kind of assay: firefly luciferase enzyme inhibitors, dose response, biochemical, luminescence (AID 1891).
A short description of assay [18]: Luminescence Cell-Based Dose Confirmation HTS to Identify Inhibitors of Platelet Dense Granule Release. [Related pubchem assays: 1663 (Primary HTS), 1678 (Summary of Project)]. In kind it is functional.
A short description of assay [19]: cells. As to conditions: A549.
Assay [20] is described as follows: lymphoblastoid cell cytotoxicity, dose response, cytotoxicity control, plate reader, dry powder, set 2 (AID 624367). It counts as functional.
Assay [21] can be described thus: HEK293 cell viability, dose response, counter-screen for EBV LMP1 inhibitor project, dry powder, set 2 (AID 624374). It counts as functional.
The target of another assay is Paired box protein Pax-8 (Homo sapiens, UniProt Q06710). Kind of assay: inhibitors of PAX8-driven TPO luciferase reporter, dose response, RMG-I cells, cherry-pick (AID 687027).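 Note: luciferase reporter driven by Pax8 target thyroperoxidase promoter measured by SteadyGlo luminescence.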 In kind it is functional, cell-based.
Assay [22] can be described thus: IGROV1 ovarian cancer cell cytotoxicity, dose response, PAX8 inhibitor project, plate reader, dry powder samples (AID 743043). As to conditions: IGROV-1. In kind it is functional, cell-based.
The nature of assay [23]: inhibitors of TNFa-stimulated NF-kB luciferase reporter, dose response, selectivity assay for EBV LMP1 NF-kB inhibitor project, HEK293 LMP1 reporter cells, dry powder, set 2 (AID 624369). In kind it is functional.
Assay [24] is described as follows: HEK293 Cytotoxicity Assay Measured in Cell-Based System Using Plate Reader - 7071-01_Inhibitor_Dose_CherryPick_Activity_Set2. In kind it is functional.
Another assay deals with HEK293. Kind of assay: HEK293T cell cytotoxicity, dose response, cytotoxicity control, ATP luminescence, cherry-pick samples (AID 687005).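 Note: cells exposed to compound for 48 hours.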 It counts as functional, cell-based. To be noted: Homo sapiens.
The next assay concerns HeLa. Briefly: HeLa cell cytotoxicity, dose response, cytotoxicity control, ATP luminescence, cherry-pick samples (AID 687004). It counts as functional, cell-based. As to conditions: Homo sapiens.
Assay [25] is described as follows: Late stage assay provider results from the probe development effort to identify inhibitors of the Plasmodium falciparum M17 Leucine Aminopeptidase (M17LAP): radiolabel-based cell-based dose response assay to identify compounds that inhibit P. falciparum growth in RBCs Set 2. In kind it is functional.
A short description of assay [26]: HepG2 cell cytotoxicity, dose response, cytotoxicity control, cherry-picks, set 5 (AID 1053118). It counts as functional, cell-based.
The nature of assay [27]: T. cruzi growth inhibition in host cells, dose response, cell-based, plate reader, dry powder, set 2 (AID 652275). It counts as functional.
Assay [28] in a line: Late stage assay provider results from the probe development effort to identify selective inhibitors of heat shock protein 90 (HSP90): Absorbance-based cell proliferation assay in SKBR3 cells. It counts as functional. As to conditions: SK-BR-3.
Assay [29] in a line: Late stage assay provider results from the probe development effort to identify selective inhibitors of heat shock protein 90 (HSP90): Absorbance-based cell proliferation assay in MCF7 cells. It counts as functional.
Assay [30] has as its target T3, Small ubiquitin-related modifier 1 (Homo sapiens, UniProt P63165). Briefly: inhibitors of SUMO1 partner interactions, dose response, biochemical, FRET (AID 624383). In kind it is functional. To be noted: read-out: IC50_Mean.
For assay [31], the target named is T3, Small ubiquitin-related modifier 1. Briefly: inhibitors of SUMO1 peptide binding, dose response, biochemical, fluorescence polarization, uHTS hits (AID 624382). To be noted: read-out: IC50_Mean. It counts as functional. Background: In fluorescence polarisation assays a small probe gives low polarisation when free and higher when bound to something large.
Assay [32] concerns the target Arf-GAP with SH3 domain, ANK repeat and PH domain-containing protein 1 (Homo sapiens, UniProt Q9ULH1). It counts as functional.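 Note: biochemical fluorescence polarization dose–response screen measuring inhibition of ASAP1; ASAP1 GAP domain stimulating GTP hydrolysis by truncated human ARF1.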

T3 sequence (P63165 whole entry): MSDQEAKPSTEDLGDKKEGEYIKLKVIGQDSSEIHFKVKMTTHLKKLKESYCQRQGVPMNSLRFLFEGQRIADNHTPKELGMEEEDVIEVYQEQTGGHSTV
T1 sequence (Q79MP6 whole entry): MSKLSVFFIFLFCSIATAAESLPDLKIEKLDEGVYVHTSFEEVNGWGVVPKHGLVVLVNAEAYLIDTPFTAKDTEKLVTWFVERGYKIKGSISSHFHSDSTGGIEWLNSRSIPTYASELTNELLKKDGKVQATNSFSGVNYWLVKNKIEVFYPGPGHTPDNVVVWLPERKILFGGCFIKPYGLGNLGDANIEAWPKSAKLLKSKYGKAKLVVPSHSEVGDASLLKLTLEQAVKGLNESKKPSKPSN
Sequence of Paired box protein Pax-8 (Q06710 whole entry): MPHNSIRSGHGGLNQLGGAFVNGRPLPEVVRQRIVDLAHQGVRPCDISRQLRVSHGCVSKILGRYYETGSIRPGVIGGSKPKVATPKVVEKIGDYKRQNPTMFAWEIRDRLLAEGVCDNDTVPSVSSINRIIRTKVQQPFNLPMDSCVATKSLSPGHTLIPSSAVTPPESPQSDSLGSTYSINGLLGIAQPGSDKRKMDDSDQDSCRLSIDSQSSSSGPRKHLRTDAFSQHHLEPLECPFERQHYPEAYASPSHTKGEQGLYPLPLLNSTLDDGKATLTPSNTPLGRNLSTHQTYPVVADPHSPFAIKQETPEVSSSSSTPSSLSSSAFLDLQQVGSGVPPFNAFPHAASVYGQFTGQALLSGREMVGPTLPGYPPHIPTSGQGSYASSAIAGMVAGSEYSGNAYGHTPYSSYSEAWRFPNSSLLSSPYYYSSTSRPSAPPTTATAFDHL
Sequence of Arf-GAP with SH3 domain, ANK repeat and PH domain-containing protein 1 (Q9ULH1 whole entry, the tested form may be a part): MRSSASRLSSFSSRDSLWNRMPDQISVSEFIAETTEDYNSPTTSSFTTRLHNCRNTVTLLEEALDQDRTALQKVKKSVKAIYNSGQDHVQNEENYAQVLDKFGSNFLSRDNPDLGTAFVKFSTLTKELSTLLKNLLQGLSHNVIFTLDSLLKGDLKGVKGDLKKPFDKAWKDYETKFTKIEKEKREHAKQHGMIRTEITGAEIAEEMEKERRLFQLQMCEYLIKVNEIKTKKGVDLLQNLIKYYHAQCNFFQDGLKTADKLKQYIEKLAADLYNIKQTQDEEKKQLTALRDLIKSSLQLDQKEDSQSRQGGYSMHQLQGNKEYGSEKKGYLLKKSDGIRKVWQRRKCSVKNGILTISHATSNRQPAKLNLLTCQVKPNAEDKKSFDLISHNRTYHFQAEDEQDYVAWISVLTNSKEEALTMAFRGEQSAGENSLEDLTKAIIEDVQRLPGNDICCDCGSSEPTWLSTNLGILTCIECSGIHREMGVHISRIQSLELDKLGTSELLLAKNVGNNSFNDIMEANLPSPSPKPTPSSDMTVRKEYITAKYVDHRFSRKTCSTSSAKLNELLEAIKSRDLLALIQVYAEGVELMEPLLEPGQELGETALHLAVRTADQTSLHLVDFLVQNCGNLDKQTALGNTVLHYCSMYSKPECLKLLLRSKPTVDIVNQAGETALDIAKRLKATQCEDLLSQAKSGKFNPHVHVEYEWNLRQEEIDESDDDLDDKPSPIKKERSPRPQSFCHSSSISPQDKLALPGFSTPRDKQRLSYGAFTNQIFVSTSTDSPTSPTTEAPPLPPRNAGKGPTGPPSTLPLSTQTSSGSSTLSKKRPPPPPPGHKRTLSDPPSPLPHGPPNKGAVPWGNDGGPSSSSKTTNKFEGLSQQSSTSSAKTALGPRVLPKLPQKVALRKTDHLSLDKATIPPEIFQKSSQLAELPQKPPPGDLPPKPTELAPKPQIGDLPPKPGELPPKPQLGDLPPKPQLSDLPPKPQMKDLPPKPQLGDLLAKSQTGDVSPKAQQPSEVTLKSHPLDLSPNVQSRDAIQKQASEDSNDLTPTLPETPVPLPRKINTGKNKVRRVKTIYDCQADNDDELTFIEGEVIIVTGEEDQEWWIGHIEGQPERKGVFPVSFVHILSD
Sequence of Beta-lactamase (Salmonella choleraesuis (strain SC-B67), UniProt Q5J463) (Q5J463 whole entry): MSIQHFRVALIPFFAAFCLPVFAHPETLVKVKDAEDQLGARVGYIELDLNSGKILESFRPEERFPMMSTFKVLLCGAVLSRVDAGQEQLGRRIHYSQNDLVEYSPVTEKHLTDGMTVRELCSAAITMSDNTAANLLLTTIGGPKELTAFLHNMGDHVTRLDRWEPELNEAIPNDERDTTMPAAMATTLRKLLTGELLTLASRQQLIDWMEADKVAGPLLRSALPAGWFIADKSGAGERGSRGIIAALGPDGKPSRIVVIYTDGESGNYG
Sequence of Galanin receptor type 3 (O60755 whole entry): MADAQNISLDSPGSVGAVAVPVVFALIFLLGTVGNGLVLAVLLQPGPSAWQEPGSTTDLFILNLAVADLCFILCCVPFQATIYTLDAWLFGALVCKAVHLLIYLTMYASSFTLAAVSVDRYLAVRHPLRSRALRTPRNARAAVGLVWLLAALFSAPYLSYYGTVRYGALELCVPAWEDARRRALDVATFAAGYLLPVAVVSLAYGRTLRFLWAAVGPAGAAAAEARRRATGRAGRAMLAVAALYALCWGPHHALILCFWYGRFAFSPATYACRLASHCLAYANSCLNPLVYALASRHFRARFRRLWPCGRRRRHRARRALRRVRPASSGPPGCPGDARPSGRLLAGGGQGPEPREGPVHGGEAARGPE
Sequence of Kallikrein-7 (P49862 whole entry): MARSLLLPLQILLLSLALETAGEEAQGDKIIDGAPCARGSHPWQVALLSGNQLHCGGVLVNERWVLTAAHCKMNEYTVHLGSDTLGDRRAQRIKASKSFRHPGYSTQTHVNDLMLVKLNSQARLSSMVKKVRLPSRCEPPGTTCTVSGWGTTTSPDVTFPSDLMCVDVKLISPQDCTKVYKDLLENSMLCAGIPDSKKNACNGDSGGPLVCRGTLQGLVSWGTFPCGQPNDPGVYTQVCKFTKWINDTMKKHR
Sequence of Luciferin 4-monooxygenase (P08659 whole entry): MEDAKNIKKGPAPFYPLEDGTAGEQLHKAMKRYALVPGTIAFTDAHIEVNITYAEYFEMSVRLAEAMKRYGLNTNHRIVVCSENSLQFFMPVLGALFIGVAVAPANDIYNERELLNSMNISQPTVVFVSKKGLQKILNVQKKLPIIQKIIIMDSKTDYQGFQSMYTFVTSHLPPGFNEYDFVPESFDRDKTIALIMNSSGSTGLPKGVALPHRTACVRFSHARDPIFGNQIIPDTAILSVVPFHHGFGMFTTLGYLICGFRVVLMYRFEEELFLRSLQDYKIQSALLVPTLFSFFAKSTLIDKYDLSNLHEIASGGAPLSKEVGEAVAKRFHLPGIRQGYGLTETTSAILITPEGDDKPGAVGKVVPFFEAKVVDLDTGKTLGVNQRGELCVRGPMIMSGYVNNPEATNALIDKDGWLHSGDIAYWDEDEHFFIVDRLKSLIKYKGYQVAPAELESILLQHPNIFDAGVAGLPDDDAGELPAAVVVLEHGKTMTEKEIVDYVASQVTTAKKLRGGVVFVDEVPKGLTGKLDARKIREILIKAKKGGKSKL

`Cc1c(C)c2c(OCC(=O)N3CCC[C@H]3C(=O)O)cc3c(c2oc1=O)CCC(C)(C)O3`: the IC50 on Beta-lactamase [1], on Beta-lactamase [2] and at Beta-lactamase [3] was > 59.6 µM (inactive) each time.
One may read the EC50 as the concentration that produces a half-maximal response. Regarding `COc1ccc(-c2cc(-c3ccccc3)n3ncnc3n2)cc1`, the EC50 in assay [4] was > 7.72 µM (active); on Kallikrein-7, > 69.5 µM (inactive).
Usually AC50 stands for the concentration at which the activity in the assay is half-maximal. In the case of `Cc1cc(CSc2ccccc2)ccc1NC(=O)c1ccc(CN2CCOCC2)cc1`, in the assay “cells [5]”, the EC50 was > 29.9 µM (inactive). Moreover, the results for the IC50 (at Galanin receptor type 3; in assay [6]; in the assay on Jurkat) were 0.322 µM (active), > 80 µM (inactive) and > 80 µM (inactive), respectively. The AC50 was 5.87 µM (active) in assay [7], 1.75 µM (active) in assay [8], 7.59 µM (active) in [9] and 2.17 µM (active) in [10].
Take `Nc1nc(Nc2ccccc2)nc2ccccc12`: the EC50 is > 29.9 µM (inactive) in the assay “cells [11]”, 0.16 µM (active) in assay [16], 1.25 µM (active) in [17] and 2.06 µM (active) in [18]. Also, the IC50 in assay [12] was 0.444 µM (active); in the assay “cells [13]” it was > 29.9 µM (inactive). For the same molecule, the figures for the AC50 in assay [14] and in assay [15] were 26 µM (active) and 4.92 µM (active), respectively.
For `N#C/C(=C\c1ccco1)C(=O)Nc1cccc2ncccc12`, in the assay “cells [19]”, the AC50 was > 52 µM (inactive).
For the molecule `O=C(C[C@H]1CC[C@H]2[C@@H](COC[C@@H](O)CN2Cc2ccc3c(c2)OCO3)O1)Nc1ccc(-c2ccccc2)cc1`, the AbsAC35 in assay [20] worked out at 77.89 µM; in assay [21], 148.97 µM; in assay [23], 57.32 µM. The AC50 at Paired box protein Pax-8 is 5.67 µM (active); in assay [22] it was 63.5 µM (active).
For `COc1ccccc1C(=O)Nc1ccc2c(c1)C(=O)N(C)C[C@H](OC)[C@@H](C)CN(CC1CC1)[C@@H](C)CO2`, the AC50 was 24.1 µM (active) in assay [24], 24.1 µM (active) with HEK293 and > 52 µM (inactive) with HeLa.
Consider `Cc1ccc(CC(=O)NO)cc1`, for which the IC50 in assay [25] is 16.3 µM (inactive).
As for `N#C[C@H]1[C@@H](c2ccccc2C2=CCCCC2)[C@@H](CO)N1S(=O)(=O)c1ccccc1`, the AC50 in assay [26] is > 47 µM (inactive).
On to `CC(c1ccc(Cl)cc1)N(C)C[C@@H]1CN(C(C)C)C(=O)c2cccc(NC(=O)c3ccncc3)c2O1` (stereo partly drawn), for which the AC50 in [27] is 0.0548 µM (active).
Take `COc1ccc(N/C=C2\C(=O)OC(=O)c3ccccc32)cc1`: the IC50 in assay [28] and in assay [29] was > 100 µM (inactive) each time.
In the case of `COc1cc(/C=N/NC(=O)c2ccc(O)cc2)ccc1OCC(=O)Nc1cccc([N+](=O)[O-])c1`, the IC50 in assay [30] was 3.86 µM (active); in assay [31], > 66.6 µM (inactive); in [32], 25.3 µM (inactive).
